Source: the NIST ThermoML archive (doi:10.1016/j.jct.2015.07.042)
± gives the expanded uncertainty stated by the source.

Assay: activity coefficient (dimensionless); of the first substance listed, at infinite dilution; xn = mol fraction of the nth substance listed
Settings: 101 kPa, Liquid, Chromatography, x1 = 0

Compound | activity coefficient (358.15 K) | activity coefficient (368.15 K) | activity coefficient (378.15 K) | activity coefficient (388.15 K) | activity coefficient (398.15 K) | activity coefficient (408.15 K) | activity coefficient (418.15 K) | activity coefficient (428.15 K)
CCc1ccccc1 [ethylbenzene] + CCCCn1cc[n+](C)c1.[Cl-] | 13.2 ± 0.9 | 13.2 ± 0.9 | 13.5 ± 0.92 | 13.7 ± 0.94 | – | – | – | –
CC(C)CO [2-methyl-1-propanol] + CCCCn1cc[n+](C)c1.COP(=O)([O-])OC | – | – | – | – | 0.23 ± 0.029 | 0.254 ± 0.03 | 0.281 ± 0.03 | 0.313 ± 0.031
c1ccncc1 [pyridine] + CCCCn1cc[n+](C)c1.[Cl-] | 1.47 ± 0.1 | 1.55 ± 0.1 | 1.64 ± 0.11 | 1.78 ± 0.12 | – | – | – | –
c1ccncc1 [pyridine] + CCCCn1cc[n+](C)c1.CS(=O)(=O)[O-] | 10.9 ± 0.75 | 10.8 ± 0.74 | 10.6 ± 0.72 | 10.5 ± 0.71 | – | – | – | –
C=CCCCCCC [oct-1-ene] + CCCCn1cc[n+](C)c1.[Cl-] | 142 ± 9.7 | 134 ± 9.2 | 126 ± 8.6 | 122 ± 8.4 | – | – | – | –
COC(C)(C)C [2-methoxy-2-methylpropane] + CCCCn1cc[n+](C)c1.CS(=O)(=O)[O-] | 17 ± 1.2 | 17.4 ± 1.2 | 17.9 ± 1.2 | 18.6 ± 1.3 | – | – | – | –
C=CCCCCCC [oct-1-ene] + CCCCn1cc[n+](C)c1.COP(=O)([O-])OC | 27.5 ± 1.9 | 26.9 ± 1.8 | 26.5 ± 1.8 | 26.2 ± 1.8 | – | – | – | –
CCOC(C)=O [ethyl acetate] + CCCCn1cc[n+](C)c1.[Cl-] | 9.02 ± 0.62 | 9.06 ± 0.62 | 9.1 ± 0.62 | 9.16 ± 0.62 | – | – | – | –
CCOC(C)=O [ethyl acetate] + CCCCn1cc[n+](C)c1.CS(=O)(=O)[O-] | 4.76 ± 0.32 | 4.88 ± 0.33 | 5 ± 0.34 | 5.28 ± 0.36 | – | – | – | –
CC#N [acetonitrile] + CCCCn1cc[n+](C)c1.CS(=O)(=O)[O-] | 0.99 ± 0.06 | 1.03 ± 0.06 | 1.08 ± 0.07 | 1.12 ± 0.07 | – | – | – | –
CCOCC [diethyl ether] + CCCCn1cc[n+](C)c1.COP(=O)([O-])OC | 6.21 ± 0.42 | 6.3 ± 0.43 | 6.39 ± 0.44 | 6.48 ± 0.44 | – | – | – | –
C1CCCCC1 [cyclohexane] + CCCCn1cc[n+](C)c1.[Cl-] | 84.2 ± 5.8 | 79 ± 5.4 | 73 ± 5 | 69.8 ± 4.8 | – | – | – | –
CCCCO [butan-1-ol] + CCCCn1cc[n+](C)c1.CS(=O)(=O)[O-] | – | – | – | – | 0.937 ± 0.059 | 0.984 ± 0.062 | 1.02 ± 0.064 | 1.07 ± 0.068
O [water] + CCCCn1cc[n+](C)c1.[Cl-] | – | – | – | – | 0.07 ± 0.03 | 0.077 ± 0.03 | 0.085 ± 0.03 | 0.094 ± 0.03
CC(C)=O [acetone] + CCCCn1cc[n+](C)c1.CS(=O)(=O)[O-] | 2.06 ± 0.14 | 2.12 ± 0.14 | 2.22 ± 0.15 | 2.3 ± 0.16 | – | – | – | –
O [water] + CCCCn1cc[n+](C)c1.COP(=O)([O-])OC | – | – | – | – | 0.073 ± 0.03 | 0.081 ± 0.03 | 0.092 ± 0.03 | 0.101 ± 0.03
CCC(C)(C)OC [2-methoxy-2-methylbutane] + CCCCn1cc[n+](C)c1.COP(=O)([O-])OC | 9.5 ± 0.65 | 9.61 ± 0.66 | 9.66 ± 0.66 | 9.75 ± 0.67 | – | – | – | –
C=CCCCC [hex-1-ene] + CCCCn1cc[n+](C)c1.[Cl-] | 61.7 ± 4.2 | 57.9 ± 4 | 53.9 ± 3.7 | 52 ± 3.6 | – | – | – | –
CC1CCCCC1 [methylcyclohexane] + CCCCn1cc[n+](C)c1.[Cl-] | 84.2 ± 5.8 | 79 ± 5.4 | 73 ± 5 | 69.8 ± 4.8 | – | – | – | –
CO [methanol] + CCCCn1cc[n+](C)c1.[Cl-] | – | – | – | – | 0.156 ± 0.029 | 0.166 ± 0.029 | 0.176 ± 0.029 | 0.191 ± 0.029
CCOC(C)(C)C [2-ethoxy-2-methylpropane] + CCCCn1cc[n+](C)c1.CS(=O)(=O)[O-] | 35.3 ± 2.4 | 35.6 ± 2.4 | 36.1 ± 2.5 | 36.6 ± 2.5 | – | – | – | –
CC#N [acetonitrile] + CCCCn1cc[n+](C)c1.COP(=O)([O-])OC | 0.88 ± 0.06 | 0.92 ± 0.06 | 0.95 ± 0.06 | 1 ± 0.06 | – | – | – | –
CCC(=O)CC [pentan-3-one] + CCCCn1cc[n+](C)c1.COP(=O)([O-])OC | 3.73 ± 0.25 | 3.81 ± 0.26 | 3.89 ± 0.26 | 4.04 ± 0.28 | – | – | – | –
CCCCCCCC [octane] + CCCCn1cc[n+](C)c1.COP(=O)([O-])OC | 47.9 ± 3.3 | 46.2 ± 3.2 | 44.6 ± 3 | 43.4 ± 3 | – | – | – | –

Compound | activity coefficient (358.15 K) | activity coefficient (368.15 K) | activity coefficient (378.15 K) | activity coefficient (388.15 K) | activity coefficient (398.15 K) | activity coefficient (408.15 K) | activity coefficient (418.15 K) | activity coefficient (428.15 K)
C=C(C)c1ccccc1 [(1-methylethenyl)benzene] + CCCCn1cc[n+](C)c1.COP(=O)([O-])OC | 4.57 ± 0.31 | 4.77 ± 0.33 | 4.98 ± 0.34 | 5.29 ± 0.36 | – | – | – | –
C=CCCCCCC [oct-1-ene] + CCCCn1cc[n+](C)c1.CS(=O)(=O)[O-] | 88.1 ± 6 | 86.8 ± 6 | 86.5 ± 5.9 | 85.6 ± 5.9 | – | – | – | –
CCCO [propan-1-ol] + CCCCn1cc[n+](C)c1.CS(=O)(=O)[O-] | – | – | – | – | 0.711 ± 0.047 | 0.744 ± 0.049 | 0.783 ± 0.051 | 0.823 ± 0.053
CO [methanol] + CCCCn1cc[n+](C)c1.CS(=O)(=O)[O-] | – | – | – | – | 0.325 ± 0.032 | 0.34 ± 0.032 | 0.357 ± 0.033 | 0.373 ± 0.033
CCC[N+](=O)[O-] [1-nitropropane] + CCCCn1cc[n+](C)c1.COP(=O)([O-])OC | 1.5 ± 0.1 | 1.56 ± 0.1 | 1.62 ± 0.11 | 1.72 ± 0.12 | – | – | – | –
Cc1ccccc1 [toluene] + CCCCn1cc[n+](C)c1.COP(=O)([O-])OC | 3.86 ± 0.26 | 3.99 ± 0.27 | 4.09 ± 0.28 | 4.29 ± 0.29 | – | – | – | –
CCCCCCCCC [nonane] + CCCCn1cc[n+](C)c1.COP(=O)([O-])OC | 67.9 ± 4.7 | 64 ± 4.4 | 61.5 ± 4.2 | 59.1 ± 4 | – | – | – | –
CCCCCCCCCC [decane] + CCCCn1cc[n+](C)c1.CS(=O)(=O)[O-] | 371 ± 26 | 352 ± 24 | 340 ± 23 | 324 ± 22 | – | – | – | –
COC(C)=O [methyl ethanoate] + CCCCn1cc[n+](C)c1.COP(=O)([O-])OC | 2.58 ± 0.18 | 2.65 ± 0.18 | 2.73 ± 0.19 | 2.85 ± 0.19 | – | – | – | –
CCCC(=O)OC [methyl butanoate] + CCCCn1cc[n+](C)c1.CS(=O)(=O)[O-] | 6.79 ± 0.46 | 7.21 ± 0.49 | 7.39 ± 0.5 | 7.84 ± 0.53 | – | – | – | –
O [water] + CCCCn1cc[n+](C)c1.CS(=O)(=O)[O-] | – | – | – | – | 0.2 ± 0.029 | 0.214 ± 0.029 | 0.228 ± 0.029 | 0.239 ± 0.029
C=COC(C)=O [vinyl acetate] + CCCCn1cc[n+](C)c1.COP(=O)([O-])OC | 2.79 ± 0.19 | 2.88 ± 0.2 | 2.99 ± 0.2 | 3.13 ± 0.21 | – | – | – | –
CCCCO [butan-1-ol] + CCCCn1cc[n+](C)c1.COP(=O)([O-])OC | – | – | – | – | 0.247 ± 0.03 | 0.271 ± 0.03 | 0.299 ± 0.031 | 0.324 ± 0.032
Cc1ccc(C)cc1 [1,4-dimethylbenzene] + CCCCn1cc[n+](C)c1.COP(=O)([O-])OC | 6.31 ± 0.43 | 6.44 ± 0.44 | 6.59 ± 0.45 | 6.86 ± 0.47 | – | – | – | –
CCc1ccccc1 [ethylbenzene] + CCCCn1cc[n+](C)c1.CS(=O)(=O)[O-] | 8.45 ± 0.58 | 8.61 ± 0.59 | 8.76 ± 0.6 | 9.05 ± 0.62 | – | – | – | –
C#CCCC [1-pentyne] + CCCCn1cc[n+](C)c1.COP(=O)([O-])OC | 2.18 ± 0.15 | 2.32 ± 0.16 | 2.46 ± 0.17 | 2.6 ± 0.18 | – | – | – | –
CCCC(=O)OC [methyl butanoate] + CCCCn1cc[n+](C)c1.[Cl-] | 12.3 ± 0.84 | 12.4 ± 0.85 | 12.6 ± 0.86 | 12.7 ± 0.87 | – | – | – | –
C1CCOC1 [tetrahydrofuran] + CCCCn1cc[n+](C)c1.COP(=O)([O-])OC | 2.79 ± 0.19 | 2.84 ± 0.19 | 2.89 ± 0.2 | 3.02 ± 0.21 | – | – | – | –
CC(C)O [propan-2-ol] + CCCCn1cc[n+](C)c1.CS(=O)(=O)[O-] | – | – | – | – | 0.835 ± 0.054 | 0.878 ± 0.056 | 0.928 ± 0.059 | 0.976 ± 0.061
CCCOCCC [dipropyl ether] + CCCCn1cc[n+](C)c1.[Cl-] | 57.4 ± 3.9 | 55.3 ± 3.8 | 52.8 ± 3.6 | 51.9 ± 3.6 | – | – | – | –
CCCCCCCC [octane] + CCCCn1cc[n+](C)c1.CS(=O)(=O)[O-] | 171 ± 12 | 165 ± 11 | 160 ± 11 | 155 ± 11 | – | – | – | –
Cc1ccccc1C [1,2-dimethylbenzene] + CCCCn1cc[n+](C)c1.COP(=O)([O-])OC | 5.54 ± 0.38 | 5.7 ± 0.39 | 5.79 ± 0.39 | 6.03 ± 0.41 | – | – | – | –
Cc1cccc(C)c1 [1,3-dimethylbenzene] + CCCCn1cc[n+](C)c1.COP(=O)([O-])OC | 6.49 ± 0.44 | 6.6 ± 0.45 | 6.73 ± 0.46 | 7 ± 0.48 | – | – | – | –
